Assay results: patent US20120245177A1, “CRYSTALLINE LEVOFOLINIC ACID AND PROCESS FOR ITS PREPARATION” (GMT FINE CHEMICALS SA, priority 2011, published 2012)

Key:
[1] = Accelerated stability test (ICH conditions); format: physicochemical; conditions: accelerated: 40±2° C., 75±5% relative humidity; for Assay of Levofolinic acid (% m/m): anhydrous and solvent free basis; for Appearance: specification white to pale yellow powder
Experimental: (§1) Two specimens of the product obtained in example 1 are subjected to accelerated stability tests and long-term stability tests, respectively; the tests are carried out according to ICH conditions. Accelerated: 40±2° C., 75±5% relative humidity Analytical methods used for the stability studies tests are described in the calcium levofolinate monograph of the European Pharmacopoeia.

[2] = Long-term stability test (ICH conditions); format: physicochemical; conditions: long-term: 25±2° C., 60±5% relative humidity; for Assay of Levofolinic acid (% m/m): anhydrous and solvent free basis; for Appearance: specification white to pale yellow powder
Experimental: as §1, with “Long-term: 25±2°” for “Accelerated: 40±2°”, “60±5%” for “75±5%”

Aspect of a 1.0% w/v solution in Tris buffer solution corrected at pH = 8.1: Absorbance at 420 nm ([1]; 0 months): 0.06 | Content of Dextrofolinic acid (H) ([1]; 0 months): <0.10% | Optical rotation of a 1.0% w/v solution in Tris solution corrected at pH = 8.1 ([1]; 0 months): −12.8 ° | Related substances: 5-CHO—4H-Pteroic acid (E) (% area) ([1]; 0 months): 0.36 % area | Related substances: Any individual unknown impurities ([1]; 0 months): <0.10 % area | Related substances: Dihydrofolic acid (G) (% area) ([1]; 0 months): <0.10 % area | Related substances: Folic acid (C) (% area) ([1]; 0 months): <0.10 % area | Related substances: N^5-N^10-diformyl-THF (B) (% area) ([1]; 0 months): <0.10 % area | Related substances: N^10—CHO-dihydrofolic acid (F) (% area) ([1]; 0 months): <0.10 % area | Related substances: N^10—CHO-folic acid (D) (% m/m) ([1]; 0 months): <0.10 % m/m | Related substances: PABG (A) (% area) ([1]; 0 months): <0.10 % area | Sum of all relates substances (% area) ([1]; 0 months): 0.57 % area | Water content (%) ([1]; 0 months): 0.8% | Assay of Levofolinic acid (% m/m) ([1]; 0 months): 99.7 % m/m | Appearance ([1]; 0 months): Conform | Aspect of a 1.0% w/v solution in Tris buffer solution corrected at pH = 8.1: Absorbance at 420 nm ([1]; 3 months): 0.05 | Related substances: 5-CHO—4H-Pteroic acid (E) (% area) ([1]; 3 months): 0.37 % area | Related substances: Any individual unknown impurities ([1]; 3 months): <0.10 % area | Related substances: Dihydrofolic acid (G) (% area) ([1]; 3 months): <0.10 % area | Related substances: Folic acid (C) (% area) ([1]; 3 months): <0.10 % area | Related substances: N^5-N^10-diformyl-THF (B) (% area) ([1]; 3 months): <0.10 % area | Related substances: N^10—CHO-dihydrofolic acid (F) (% area) ([1]; 3 months): 0.16 % area | Related substances: N^10—CHO-folic acid (D) (% m/m) ([1]; 3 months): <0.10 % m/m | Related substances: PABG (A) (% area) ([1]; 3 months): <0.10 % area | Sum of all relates substances (% area) ([1]; 3 months): 0.63 % area | Water content (%) ([1]; 3 months): 0.8% | Assay of Levofolinic acid (% m/m) ([1]; 3 months): 99.9 % m/m | Appearance ([1]; 3 months): Conform | Aspect of a 1.0% w/v solution in Tris buffer solution corrected at pH = 8.1: Absorbance at 420 nm ([1]; 6 months): 0.06 | Content of Dextrofolinic acid (H) ([1]; 6 months): <0.10% | Related substances: 5-CHO—4H-Pteroic acid (E) (% area) ([1]; 6 months): 0.33 % area | Related substances: Any individual unknown impurities ([1]; 6 months): <0.10 % area | Related substances: Dihydrofolic acid (G) (% area) ([1]; 6 months): <0.10 % area | Related substances: Folic acid (C) (% area) ([1]; 6 months): <0.10 % area | Related substances: N^5-N^10-diformyl-THF (B) (% area) ([1]; 6 months): <0.10 % area | Related substances: N^10—CHO-dihydrofolic acid (F) (% area) ([1]; 6 months): 0.25 % area | Related substances: N^10—CHO-folic acid (D) (% m/m) ([1]; 6 months): <0.10 % m/m | Related substances: PABG (A) (% area) ([1]; 6 months): 0.13 % area | Sum of all relates substances (% area) ([1]; 6 months): 0.84 % area | Water content (%) ([1]; 6 months): 1.1% | Assay of Levofolinic acid (% m/m) ([1]; 6 months): 99.0 % m/m | Appearance ([1]; 6 months): Conform | Aspect of a 1.0% m/V solution in Tris solution corrected at pH = 8.1: Absorbance at 420 nm ([2]; 0 months): 0.06 | Content of Dextrofolinic acid (H) ([2]; 0 months): <0.10% | Optical rotation of a 1.0% m/V solution in Tris solution corrected at pH = 8.1 ([2]; 0 months): −12.8 ° | Related substances: 5-CHO-4H-Pteroic acid (E) (% area) ([2]; 0 months): 0.36 % area | Related substances: Any individual unknown impurities ([2]; 0 months): <0.10 % area | Related substances: Dihydrofolic acid (G) (% area) ([2]; 0 months): <0.10 % area | Related substances: Folic acid (C) (% area) ([2]; 0 months): <0.10 % area | Related substances: N^5-N^10-diformyl-THF (B) (% area) ([2]; 0 months): <0.10 % area | Related substances: N^10-CHO-dihydrofolic acid (F) (% area) ([2]; 0 months): <0.10 % area | Related substances: N^10-CHO-folic acid (D) (% m/m) ([2]; 0 months): <0.10 % m/m | Related substances: PABG (A) (% area) ([2]; 0 months): <0.10 % area | Sum of all relates substances (% area) ([2]; 0 months): 0.57 % area | Water content (%) ([2]; 0 months): 0.8% | Assay of Levofolinic acid (% m/m) ([2]; 0 months): 99.7 % m/m | Appearance ([2]; 0 months): Conform | Aspect of a 1.0% m/V solution in Tris solution corrected at pH = 8.1: Absorbance at 420 nm ([2]; 3 months): 0.05 | Related substances: 5-CHO-4H-Pteroic acid (E) (% area) ([2]; 3 months): 0.31 % area | Related substances: Any individual unknown impurities ([2]; 3 months): <0.10 % area | Related substances: Dihydrofolic acid (G) (% area) ([2]; 3 months): <0.10 % area | Related substances: Folic acid (C) (% area) ([2]; 3 months): <0.10 % area | Related substances: N^5-N^10-diformyl-THF (B) (% area) ([2]; 3 months): <0.10 % area | Related substances: N^10-CHO-dihydrofolic acid (F) (% area) ([2]; 3 months): 0.13 % area | Related substances: N^10-CHO-folic acid (D) (% m/m) ([2]; 3 months): <0.10 % m/m | Related substances: PABG (A) (% area) ([2]; 3 months): <0.10 % area | Sum of all relates substances (% area) ([2]; 3 months): 0.49 % area | Water content (%) ([2]; 3 months): 0.8% | Assay of Levofolinic acid (% m/m) ([2]; 3 months): 100.6 % m/m | Appearance ([2]; 3 months): Conform | Aspect of a 1.0% m/V solution in Tris solution corrected at pH = 8.1: Absorbance at 420 nm ([2]; 6 months): 0.06 | Content of Dextrofolinic acid (H) ([2]; 6 months): <0.10% | Related substances: 5-CHO-4H-Pteroic acid (E) (% area) ([2]; 6 months): 0.34 % area | Related substances: Any individual unknown impurities ([2]; 6 months): <0.10 % area | Related substances: Dihydrofolic acid (G) (% area) ([2]; 6 months): <0.10 % area | Related substances: Folic acid (C) (% area) ([2]; 6 months): <0.10 % area | Related substances: N^5-N^10-diformyl-THF (B) (% area) ([2]; 6 months): <0.10 % area | Related substances: N^10-CHO-dihydrofolic acid (F) (% area) ([2]; 6 months): 0.15 % area
SMILES: Nc1nc(=O)c2c([nH]1)NC[C@H](CNc1ccc(C(=O)N[C@@H](CCC(=O)O)C(=O)O)cc1)N2C=O [Example 1, (6S)—N(5)-formyl-5,6,7,8-tetrahydrofolic acid]
